The results in this text go back to article PMC6458391, “Deep eutectic solvent for an expeditious sono-synthesis of novel series of bis-quinazolin-4-one derivatives as potential anti-cancer agents” (Royal Society Open Science, 2019).

The test system of data set [1] is A549 (lung cancer) cell line. In words: MTT cytotoxicity assay, A549. To be noted: for inhibition: 48 h, triplicate, mean ± s.e.m.; for IC50: read-out: IC50 A549, MTT, 48 h drug treatment, A549.
Description: Two concentrations (10 and 30 µM in triplicate) of the derivatives were utilized and after 48 h of drug treatment the results were analyzed. The obtained results were tabulated as mean ± s.e.m. With standard errors below 10%, the reproducibility between replicate wells is within the acceptable values.
The cytotoxic activities of all newly prepared derivatives were assessed in monolayer cultures by utilizing MTT assay. […] The tested derivatives were prepared prior to the experiment by dissolving in 0.1% DMSO and diluted with medium. The cells were then exposed to two concentrations of drugs (10 and 30 µM) in the volume of 100 µM/well. Cells in the control wells received the same volume of medium comprising 0.1% DMSO. After 24 h, the medium was removed and cell cultures were incubated with 100 ml MTT reagent for 5 h at 37°C. The known number of cells was incubated in a 5% CO2 incubator at 37°C in the presence of different concentrations of test compounds. After 48 h of drug incubation, the MTT solution was added in each well and the absorbance was measured by using a microplate reader at 490 nm. The experiment was performed in triplicate. Cell survival was calculated as the percentage of MTT inhibition as % growth inhibition = 100 − (mean OD of individual test group/mean OD of each control group) × 100.
Setting [2] is: read-out: Cells viability (%) A549, 10 μM, 10 μM.
Setting [3] is: read-out: Cells viability (%) A549, 30 μM, 30 μM.

Each structure is given as a SMILES string. Read-outs that look alike come from different tables or passages of the source.

For orientation: melting point means the temperature, or range, at which the solid turns liquid. Broadly, the IC50 is the concentration needed to halve the response being measured. For the molecule `Cc1nc2ccccc2c(=O)n1[C@H]1CC[C@H](n2c(C)nc3ccccc3c2=O)CC1` [Compound 3a, 3,3′-((1R,4R)-Cyclohexane-1,4-diyl)bis(2-methylquinazolin-4(3H)-one)], the melting point was 273 to 275 °C. In addition, the inhibition in data set [1] (setting [2]) was found to be 60.2 ± 1.56%. Also, in data set [1] (setting [3]), the inhibition worked out at 97.2 ± 0.41%. In addition, in data set [1], the IC50 worked out at 8.15 µM.

`Cc1nc2ccccc2c(=O)n1-c1ccc(S(=O)(=O)c2ccc(-n3c(C)nc4ccccc4c3=O)cc2)cc1` [Compound 7a, 3,3′-(Sulfonylbis(4,1-phenylene))bis(2-methylquinazolin-4(3H)-one)] yielded a melting point of 294 to 297 °C. The inhibition in data set [1] (setting [2]) was 82.7 ± 1.63%. Besides, the inhibition in data set [1] (setting [3]) worked out at 82.1 ± 0.5%. Moreover, in data set [1], the IC50 was 4.58 µM.

In turn, `Cc1ccc2nc(C)n(CCn3c(C)nc4ccc(C)cc4c3=O)c(=O)c2c1` [Compound 5b, 3,3′-(Ethane-1,2-diyl)bis(2,6-dimethylquinazolin-4(3H)-one)] registered a melting point of 211 to 212 °C. In data set [1] (setting [2]), the inhibition was 40 ± 2.11%. Moreover, the inhibition in data set [1] (setting [3]) turned out to be 89.7 ± 1.76%. Besides, the IC50 in data set [1] worked out at 15.7 µM.
